Results: patent US20250057961A1, “BLOOD-BRAIN BARRIER PENETRATING DRUG DELIVERY SYSTEM USING SIALYLLACTOSE” (GENECHEM INC., priority 2021, published 2025)
“Also recorded” adds a separate entry of the source. Like-named read-outs stand apart in the source and are kept apart here.

What was measured:
[1] = mouse, in vivo
Protocol: (§1) First, the fluorescent substance Cy5.5 (Genechem, Cat no. GCCD0064) was attached to each of lactose, 2,3-sialyllactose (GCB100) and 2,6-sialyllactose (GCB200), and each substance was dissolved and diluted in 10% DMSO, thus preparing samples (final DMSO concentration is approximately 2% of the total volume). After administering each sample at 1 mol/kg into the veins of BALB/c nude mice, the fluorescence signals in the brains of the nude mice were measured at different time points (1, 2, 4, 6, 8, and 24 hours) using the IVIS spectrum CT (Perkin Elmer).
(§2) Next, the fluorescent substance Cy5.5 (Genechem, Cat no. GCCD0064) was attached to each of sialic acid, 2,3-sialyllactose (GCB100) and 2,6-sialyllactose (GCB200), and each substance was dissolved and diluted in 10% DMSO, thus preparing samples (final DMSO concentration is approximately 2% of the total volume). After administering each sample at 1 mol/kg into the veins of BALB/c nude mice, the fluorescence signals in the brains of the nude mice were measured at different time points (10 min, 30 min, 1, 2, 4, 6, 8, and 24 hours) using the IVIS spectrum CT (Perkin Elmer). 24 hours after administration, the nude mice were perfused with saline solution, the brains were extracted, and fluorescence present in the brains was measured.
(§3) The experiment was conducted in the same manner as the above-described experiment on blood-brain barrier penetration of sialyllactose.
(§4) Here, Cy5.5 alone and gemcitabine attached to only Cy5.5 were used as controls. First, each material was dissolved and diluted in 10% DMSO, thus preparing samples (final DMSO concentration is approximately 2% of the total volume). After administering each sample at 1 mol/kg into the veins of BALB/c nude mice, the fluorescence signals in the brains of the nude mice were measured at different time points (10 min, 30 min, 1, 2, 4, 6, 8, and 24 hours) using the IVIS spectrum CT (Perkin Elmer). 24 hours after administration, the nude mice were perfused with saline solution, the brains were extracted, and fluorescence present in the brains was measured.

U-87MG = assay: Anticancer efficacy in mouse brain cancer model (luciferase-expressing U-87MG transplanted into brain, optical imaging); type: in vivo; details: intravenously twice a week, 8 times for 4 weeks; GCB017 22 mol/kg; days 20, 24, 27; FIG. 13
Protocol: The brain cancer model was produced by transplanting U-87MG, a brain cancer cell line that expresses luciferase. For transplantation into the brain, each animal was anesthetized by isoflurane injection and fixed on a stereotaxic arm, and the head skin was incised vertically by about 1 cm and the injection site was exposed using a micro drill. The cell line was transferred into a 25-μl Hamilton syringe equipped with a 31-gauge needle, and then the cell line was transplanted at a rate of 1 i/min to an area 1 mm anterior, 2 mm lateral, and 3 mm deep based on bregma. After cell line transplantation, in order to prevent reflux and ensure good absorption, the syringe was maintained for about 10 minutes and separated, and the incision was sutured and disinfected. After confirming that the anesthesia had worn off, the animals were reared normally. Starting 1 week after model production, each of methotrexate and GCB017 was administered intravenously twice a week for a total of 8 times for 4 weeks, and the size of the brain tumor was measured by optical imaging (FIG. 13). […] In combination with the results of Examples 3-2 and 3-3 above, it is believed that the sialyllactose-methotrexate conjugate according to the present invention has an improved BBB penetration ability compared to methotrexate and inhibits tumor formation and growth.

[2] = Blood-brain barrier penetration experiment: brain fluorescence of Cy5.5-attached substances (IVIS spectrum CT, in vivo and extracted brain); details: for brain penetration (fluorescence signal in the brain): Cy5.5-attached substance, into the veins, up to 24 hours, FIGS. 1-3
Protocol: as §1, §2, §3, §4

BxPC-3 = details: 5, 10, 20 and 40 nM, 72 hours, FIG. 16A
PARP = details: BxPC-3, 5-40 nM, 72 hours, FIG. 16B
Caspase-3 = details: BxPC-3, 5-40 nM, 72 hours, FIG. 16B
[3] = Brain tissue penetration and substance dissociation (LC-MS/MS of tissue homogenate supernatant); type: in vivo
Protocol: To examine the distribution and dissociation of sialyllactose-conjugated methotrexate in tissues, GCB017 was administered and the presence of GCB017 and its dissociates (linker-6′SL (L-6′SL) and linker) in the brain and pancreas was checked. Specifically, GCB017 was dissolved and diluted in 10% DMSO, thus preparing a sample (final DMSO concentration was approximately 2% of the total volume). The sample was administered intravenously (IV) at a dose of 80 mg/kg or administered orally (PO) at a dose of 80 mg/kg. Then, at different time points (0, 0.5, 2, and 4 hours), the animals were anesthetized, heart blood was collected, saline solution was perfused, and the brain and pancreas were extracted. Each of the extracted tissues was homogenized in 50 mM Tris-HCl buffer (pH 7.5) at a ratio of 1:5 and centrifuged at 3,000 rpm and 4° C. for 20 minutes, and the supernatant was collected and subjected to mass spectrometry (SCIEX Triple Quad 3500 LC-MS/MS system).
The sample was administered intravenously (IV) at a dose of 80 mg/kg or administered orally (PO) at a dose of 246 mg/kg. Then, at different time points (0, 0.5, 2, and 4 hours), the animals were anesthetized, heart blood was collected, saline solution was perfused, and the brain and pancreas were extracted. Each of the extracted tissues was homogenized in 50 mM Tris-HCl buffer (pH 7.5) at a ratio of 1:5 and centrifuged at 3,000 rpm and 4° C. for 20 minutes, and the supernatant was collected and subjected to mass spectrometry (SCIEX Triple Quad 3500 LC-MS/MS system).

CC(=O)N[C@H]1[C@H]([C@H](O)[C@H](O)CO)OC(O)(C(=O)O)C[C@@H]1O (stereo partly drawn) [sialic acid, reference compound]
brain penetration (fluorescence signal in the brain) [1]: brain penetration remained at a similar level

CN(Cc1cnc2nc(N)nc(N)c2n1)c1ccc(C(=O)N[C@@H](CCC(=O)O)C(=O)O)cc1 [methotrexate, reference compound]
size of the brain tumor (U-87MG): the tumor size also tended to increase gradually starting from day 20 | fluorescence signal in the brain of sialyllactose-conjugated methotrexate ([2]; Cy5.5-attached, time-dependent and extracted brain at 24 hours, FIGS. 11, 12): almost no fluorescence signal appeared in the brain

2,3-sialyllactose [GCB100]
brain penetration (fluorescence signal in the brain) [2]: well delivered to the brain, compared to lactose-bound Cy5.5

gemcitabine-succinate-aminohexyl-6′SL [GCB034]
cell viability (anticancer effect) (BxPC-3): induce cancer cell death at all treatment concentrations, but also exhibited a higher anticancer effect than gemcitabine | decrease in the pro-form of PARP (PARP): significant in a concentration-dependent manner | increase in Caspase-3 cleavage (Caspase-3): significant in a concentration-dependent manner

CCN1\C(=C/C=C/C=C/C2=[N+](CCCCCC(=O)O)c3ccc4c(S(=O)(=O)O)cc(S(=O)(=O)O)cc4c3C2(C)C)C(C)(C)c2c1ccc1c(S(=O)(=O)[O-])cc(S(=O)(=O)O)cc21 [Cy5.5, reference compound]
brain penetration (fluorescence signal in the brain) [2]: barely penetrated the blood-brain barrier | brain penetration (fluorescence signal in the brain) of sialyllactose-conjugated dopamine ([2]; Cy5.5-attached, controls Cy5.5-dopamine or Cy5.5, FIGS. 5, 6, 8, 9): barely detected in the brain

CC(=O)N[C@H]1[C@H]([C@H](O)[C@H](O)CO)O[C@@](OC[C@H]2O[C@@H](O[C@H]3[C@H](O)[C@@H](O)[C@H](OCCCCCCNC(=O)CC[C@H](NC(=O)c4ccc(N(C)Cc5cnc6nc(N)nc(N)c6n5)cc4)C(=O)O)O[C@@H]3CO)[C@H](O)[C@@H](O)[C@H]2O)(C(=O)O)C[C@@H]1O [GCB017]
presence of GCB017 and its dissociates in brain tissue ([3]; 80 mg/kg IV or 80 mg/kg PO): detected in the brain tissue not only when GCB017 was administered intravenously but also when administered orally | level at 2 h ([3]; brain, iv, 80 mg/kg, GCB017 80 mg/kg IV, 2 h, single animals): 52.7 ng/mL | level at 4 h ([3]; brain, po, 80 mg/kg, GCB017 80 mg/kg PO, 4 h, single animals): 30.3 ng/mL | size of the brain tumor (U-87MG): tumor formation was delayed and the tumor size was also controlled | fluorescence signal in the brain of sialyllactose-conjugated methotrexate [1]: a strong fluorescence signal appeared

2,6-sialyllactose [GCB200]
brain penetration (fluorescence signal in the brain) [2]: well delivered to the brain, compared to lactose-bound Cy5.5; also recorded: the effect of 2,6-sialyllactose was higher than that of 2,3-sialyllactose
